Laboratory results as given in patent US8871777B2, “Phenylpyrimidone compounds, the pharmaceutical compositions, preparation methods and uses thereof” (Topharman Shanghai Co., Ltd., priority 2008, dated 2014).

Columns and labels:
[1] = target: T1, PDE6 in bovine retina (Bos taurus, UniProt P11541+P23439); experiment: PDE6 enzyme inhibition activity test (scintillation proximity); assay type: biochemical; conditions: for IC50: PDE6 separated from bovine retina, read-out: PDE6 IC50; for PDE6 IC50/PDE5 IC50: selectivity, ratio of IC50 PDE6/IC50 PDE5
T1 construct: obtained by suitably treating various tissues and separating the enzyme with FPLC; from tissue; host or cells: bovine retina
T1 sequence (P11541 2-856 limits assumed): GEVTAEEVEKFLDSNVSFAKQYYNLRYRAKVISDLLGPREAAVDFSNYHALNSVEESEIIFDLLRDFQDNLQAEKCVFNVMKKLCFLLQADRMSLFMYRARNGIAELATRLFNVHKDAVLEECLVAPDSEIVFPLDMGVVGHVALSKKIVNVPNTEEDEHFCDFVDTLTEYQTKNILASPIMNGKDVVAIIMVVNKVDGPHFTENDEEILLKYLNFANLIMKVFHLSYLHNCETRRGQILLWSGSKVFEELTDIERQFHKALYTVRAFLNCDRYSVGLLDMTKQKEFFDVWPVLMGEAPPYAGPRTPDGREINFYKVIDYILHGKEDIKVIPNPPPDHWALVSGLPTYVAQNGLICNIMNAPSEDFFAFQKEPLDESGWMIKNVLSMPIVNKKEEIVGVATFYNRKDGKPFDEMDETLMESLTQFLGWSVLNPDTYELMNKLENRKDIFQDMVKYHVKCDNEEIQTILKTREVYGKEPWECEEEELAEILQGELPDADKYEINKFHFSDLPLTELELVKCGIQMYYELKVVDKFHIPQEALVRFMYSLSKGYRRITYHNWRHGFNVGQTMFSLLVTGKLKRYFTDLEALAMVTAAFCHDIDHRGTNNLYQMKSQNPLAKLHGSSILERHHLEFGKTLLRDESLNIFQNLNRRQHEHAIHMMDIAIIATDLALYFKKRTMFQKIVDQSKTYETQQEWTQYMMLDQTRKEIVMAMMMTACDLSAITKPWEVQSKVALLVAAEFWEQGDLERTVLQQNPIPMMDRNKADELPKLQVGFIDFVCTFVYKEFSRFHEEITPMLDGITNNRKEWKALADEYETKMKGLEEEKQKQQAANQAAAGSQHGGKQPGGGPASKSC
T1 sequence (P23439 2-850 limits assumed): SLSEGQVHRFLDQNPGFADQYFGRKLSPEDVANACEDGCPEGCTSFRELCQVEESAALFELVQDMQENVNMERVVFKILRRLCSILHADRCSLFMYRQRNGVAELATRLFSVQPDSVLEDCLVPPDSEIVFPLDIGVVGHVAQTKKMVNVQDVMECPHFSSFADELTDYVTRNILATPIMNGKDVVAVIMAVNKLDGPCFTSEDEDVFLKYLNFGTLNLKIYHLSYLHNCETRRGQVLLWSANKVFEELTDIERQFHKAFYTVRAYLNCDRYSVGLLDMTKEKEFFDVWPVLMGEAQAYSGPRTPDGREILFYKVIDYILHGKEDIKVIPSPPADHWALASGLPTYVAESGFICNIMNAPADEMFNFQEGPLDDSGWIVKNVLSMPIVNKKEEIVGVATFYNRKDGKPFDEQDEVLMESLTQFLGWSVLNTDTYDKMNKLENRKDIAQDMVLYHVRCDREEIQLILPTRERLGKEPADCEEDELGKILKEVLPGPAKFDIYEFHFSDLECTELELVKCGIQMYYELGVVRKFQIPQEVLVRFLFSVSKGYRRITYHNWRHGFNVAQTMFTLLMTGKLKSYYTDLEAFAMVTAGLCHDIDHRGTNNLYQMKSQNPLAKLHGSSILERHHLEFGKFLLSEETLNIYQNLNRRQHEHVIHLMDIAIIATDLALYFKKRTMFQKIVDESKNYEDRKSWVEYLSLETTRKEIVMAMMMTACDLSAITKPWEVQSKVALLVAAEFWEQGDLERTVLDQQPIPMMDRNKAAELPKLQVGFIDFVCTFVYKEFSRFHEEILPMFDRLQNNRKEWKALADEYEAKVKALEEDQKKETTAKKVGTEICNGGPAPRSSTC
Method: (§1) More specifically, PDE5 and PDE3 were obtained from human blood platelet, and PDE6 was separated from bovine retina. Upon enzyme was separated out, the enzyme inhibition activity test would be carried out immediately. The said enzyme inhibition activity test was performed by directly detecting the scintillation proximity of AMP/GMP using TRKQ7100 and TRKQ7090 kits, which was generally as follows. In the presence of different concentrations of inhibitor and a small amount of substrate, 10 μl of buffer (50 mM Tris/HCl PH 7.5, 8.3 mM MgCl2, 1.7 mM EGTA) was added, and then water was added to a final volume of 100 μl. The reaction was initiated with a fixed amount of enzyme, incubated at 30° C. for 30 min, and then quenched with 50 μl of yttrium silicate beads comprising zinc sulphate. After shaken for 20 min, the reaction mixture was put in dark and settled for 30 min, and then readed on a BECKMAN LS6500 MULTI-PURPOSE SCINTILLATION COUNTER.

[2] = target: T2, human blood platelet PDE5 (Homo sapiens, UniProt O76074); experiment: PDE5 enzyme inhibition activity test (scintillation proximity); assay type: biochemical
T2 construct: obtained by suitably treating various tissues and separating the enzyme with FPLC; from tissue; host or cells: human blood platelets
Method: as §1

Compound	IC50 [1] [nM]	PDE6 IC50/PDE5 IC50 [1]	IC50 ([2]; PDE5 table) [nM]	IC50 ([2]; as repeated in the PDE6 table) [nM]
CCCOc1ccc(C(=O)NCC(=O)OCC)cc1-c1nc(CC)c(CC)c(=O)[nH]1 [Example 89, Ethyl 2-(3-(4,5-diethyl-1,6-dihydro-6-oxopyrimidin-2-yl)-4-n-propoxybenzamido)acetate]	11.7	5.88	1.98	1.98
CCCOc1ccc(C(=O)NC(C)C(=O)N2CCN(C)CC2)cc1-c1nc(CC)c(CC)c(=O)[nH]1 (stereo not drawn) [Example 154, 3-(4,5-diethyl-1,6-dihydro-6-oxopyrimidin-2-y1)-N-(1-(4-methylpiperazin-l-yl)-1-oxopropan-2-y1)-4-n-propoxybenzamide]	37.9	94.6	0.4	0.4
CCCOc1ccc(NC(C)=O)cc1-c1nc(C(C)C)c(Br)c(=O)[nH]1 [Example 52, N-(3-(1,6-dihydro-4-isopropyl-5-bromo-6-oxopyrimidin-2-yl)-4-propoxyphenyl)acetamide]	52.6	36.0	1.46	1.46
CCCOc1ccc(NC(=O)NCC)cc1-c1nc(CC)c(CC)c(=O)[nH]1 [Example 68, 1-(3-(4,5-Diethyl-1,6-dihydro-6-oxopyrimidin-2-yl)-4-n-propoxyphenyl)-3-ethylurea]	16.4	31.0	0.53	0.53
CCCOc1ccc(C(=O)NC(C)C(=O)O)cc1-c1nc(CC)c(CC)c(=O)[nH]1 (stereo not shown) [Example 145, 2-(3-(4,5-diethyl-1,6-dihydro-6-oxopyrimidin-2-yl)-4-n-propoxybenzamido)propionic acid]	24.2	51.5	0.47	0.47
CCCOc1ccc(NC(=O)C2CCCN2C(C)=O)cc1-c1nc(CC)c(CC)c(=O)[nH]1 (stereo not shown) [Example 108, 1-acetyl-N-(3-(4,5-diethyl-1,6-dihydro-6-oxopyrimidin-2-yl)-4-n-propoxyphenyl)pyrrolidinyl-2-formamide]	5.73	6.99	0.54	0.54
CCCOc1ccc(C(=O)NCCCS(=O)(=O)O)cc1-c1nc(CC)c(CC)c(=O)[nH]1 [Example 169, 3-(3-(4,5-diethyl-1,6-dihydro-6-oxopyrimidin-2-yl)-4-n-propoxybenzamido)propyl-1-sulfonic acid]	10.4	91.3	0.11	0.11
CCCOc1ccc(NS(C)(=O)=O)cc1-c1nc(C(C)C)c(Br)c(=O)[nH]1 [Example 50, 5-Bromo-6-isopropyl-2-(2-n-propoxy-5-mesylamidophenyl)pyrimid-4(3H)-one]	114	91.9	1.24	
CCCOc1ccc(C(=O)N2CCCC2C(=O)OC)cc1-c1nc(CC)c(CC)c(=O)[nH]1 (stereo not shown) [Example 139]	7.82	12.8	0.61	0.61
CCCOc1ccc(S(=O)(=O)N(CCO)CCN2CCOCC2)cc1-c1nc(CC)c(CC)c(=O)[nH]1 [Example 135, 5,6-diethyl-2-(2-n-propoxy-5-(N-(2-morpholinylethyl)-N-(2-hydroxyethyl)aminosulfonyl)phenyl)pyrimid-4(3H)-one]	9.66	9.6	1.01	1.01
CCCOc1ccc(C(=O)NC(C)CO)cc1-c1nc(CC)c(CC)c(=O)[nH]1 (stereo not shown) [Example 166, 3-(4,5-diethyl-1,6-dihydro-6-oxopyrimidin-2-yl)-N-(1-hydroxyprop-2-yl)-4-n-propoxybenzamide]	5.15	15.6	0.33	0.33
CCCOc1ccc(C(=O)N2CCOCC2)cc1-c1nc(CC)c(CC)c(=O)[nH]1 [Example 59, (Morpholin-1-yl)(3-(4,5-diethyl-1,6-dihydro-6-oxopyrimidin-2-yl)-4-n-propoxy)benzophenone]	7.88	13.7	0.57	0.57
CCCOc1ccc(C(=O)N2CCCCC2)cc1-c1nc(CC)c(CC)c(=O)[nH]1 [Example 60, (piperid-1-yl)(3-(4,5-diethyl-1,6-dihydro-6-oxopyrimidin-2-yl)-4-n-propoxy)benzophenone]	8.19	4.0	2.04	2.04
CCCOc1ccc(S(=O)(=O)NC(C)C(=O)OCC)cc1-c1nc(CC)c(CC)c(=O)[nH]1 (stereo not shown) [Example 123, ethyl 2-(N-(3-(4,5-diethyl-1,6-dihydro-6-oxopyrimidin-2-yl)-4-n-propoxyphenyl)sulfonyl)aminopropionate]	13.3	27.3	0.49	0.49
CCCOc1ccc(C(=O)N2CCN(C)CC2)cc1-c1nc(CC)c(CC)c(=O)[nH]1 [Example 205]	17.2	8.9	1.93	1.93
CCCOc1ccc(NC(=S)NCC)cc1-c1nc(CC)c(CC)c(=O)[nH]1 [Example 43, 1-(3-(4,5-Diethyl-1,6-dihydro-6-oxopyrimidin-2-yl)-4-n-propoxyphenyl)-3-ethylthiourea]	42.8	11.5	3.72	3.72
CCCOc1ccc(NS(C)(=O)=O)cc1-c1nc(CC)c(CC)c(=O)[nH]1 [Example 51, 5,6-Diethyl-2-(2-n-propoxy-5-mesylamidophenyl)pyrimid-4(3H)-one]	34.8	28.3	1.23	1.23
CCCOc1ccc(C(=O)N2CCOCC2)cc1-c1nc(C(C)C)c(Br)c(=O)[nH]1 [Example 63, (Morpholin-1-yl)(3-(4-isopropyl-5-bromo-1,6-dihydro-6-oxopyrimidin-2-yl)-4-n-propoxy)benzophenone]	33.4	26.9	1.24	1.24
CCCOc1ccc(NC(=O)C(N)=O)cc1-c1nc(CC)c(CC)c(=O)[nH]1 [Example 114, N^1-(3-(4,5-diethyl-1,6-dihydro-6-oxopyrimidin-2-yl)-4-n-propoxyphenyl)oxalamide]	18.7	10.53	0.83	0.83
CCCOc1ccc(C(=O)CN2CCOCC2)cc1-c1nc(CC)c(CC)c(=O)[nH]1 [Example 76, 5,6-diethyl-2-(5-(2-morpholinylacetyl)-2-n-propoxyphenyl)pyrimid-4(3H)-one]	25.2	12.7	1.99	1.99
